The values below are quoted from earlier work in patent US20170008834A1, “FUMARATE COMPOUNDS, PHARMACEUTICAL COMPOSITIONS THEREOF, AND METHODS OF USE” (priority 2015, published 2017).

Structures are written as SMILES.

On to `COC(=O)/C=C/C(=O)OC` [DMF, dimethylfumarate], for which the aqueous solubility result is given as “poor”.
